# Measured values as given in US20260049092A1, “ANTIBACTERIAL COMPOUNDS” (Blacksmith Medicines, Inc., priority 2022, published 2026).
# Read-outs that look alike come from different tables or passages of the source.
# Tests used:
# Experiment in all cases: Bacterial susceptibility testing (MIC, broth microdilution)
# Assay type in all cases: cell-based
# P. aeruginosa ATCC27853 = conditions: Pseudomonas aeruginosa
# Method: (§1) Minimal inhibitory concentrations (MIC) were determined by the broth microdilution method in accordance with the Clinical and Laboratory Standards Institute (CLSI) guidelines. In brief, organism suspensions were adjusted to a final inoculum between 3×10^5 and 7×10^5 colony-forming units (CFU)/mL. Drug dilutions and inocula were made in sterile, cation adjusted Mueller-Hinton Broth (Beckton Dickinson). In wells, an inoculum volume of 100 μL was mixed to 2 μL of DMSO with 2-fold serial dilutions of drug. All inoculated microdilution trays were incubated in ambient air at 35° C. for 18-24 h. Following incubation, the lowest concentration of the drug that prevented visible growth (OD600 nm<0.05) was recorded as the MIC. Performance of the assay was monitored by the use of laboratory quality -control strains and compounds with defined MIC spectrum, in accordance with CLSI guidelines.
# P. aeruginosa PAO1 = conditions: Pseudomonas aeruginosa
# Method: as §1
# E. coli ATCC25922 = conditions: Escherichia coli
# Method: as §1
# K. pneumoniae ATCC13883 = conditions: Klebsiella pneumoniae
# Method: as §1
# [1] = ATCC27853, broth microdilution, cation adjusted Mueller-Hinton Broth, 35° C., 18-24 h, read-out: P. aeruginosa ATCC27853 MIC
# [2] = PAO1, broth microdilution, cation adjusted Mueller-Hinton Broth, 35° C., 18-24 h, read-out: P. aeruginosa PAO1 MIC
# [3] = ATCC25922, broth microdilution, cation adjusted Mueller-Hinton Broth, 35° C., 18-24 h, read-out: E. coli ATCC25922 MIC
# [4] = ATCC13883, broth microdilution, cation adjusted Mueller-Hinton Broth, 35° C., 18-24 h, read-out: K. pneumoniae ATCC13883 MIC
# [5] = ATCC27853, read-out: P. aeruginosa ATCC27853 MIC
# [6] = PAO1, read-out: P. aeruginosa PAO1 MIC
# [7] = ATCC25922, read-out: E. coli ATCC25922 MIC
# [8] = ATCC13883, read-out: K. pneumoniae ATCC13883 MIC
SMILES,MIC (P. aeruginosa ATCC27853; [1]),MIC (P. aeruginosa PAO1; [2]),MIC (E. coli ATCC25922; [3]),MIC (K. pneumoniae ATCC13883; [4]),MIC (P. aeruginosa ATCC27853; [5]),MIC (P. aeruginosa PAO1; [6]),MIC (E. coli ATCC25922; [7]),MIC (K. pneumoniae ATCC13883; [8])
"C[C@H](O)c1nccn1[C@@H](C#Cc1ccc(-c2ccc(O[C@H]3COC[C@]3(O)C(F)(F)F)cc2)cc1)CO (racemic) [Compound 119, (rac-cis)-4-((4′-((S)-4-hydroxy-3-(2-((S)-1-hydroxyethyl)-1H-imidazol-1-yl)but-1-yn-1-yl)-[1,1′-biphenyl]-4-yl)oxy)-3-(trifluoromethyl)tetrahydrofuran-3-ol]",> 32 µg/mL,8 µg/mL,4 µg/mL,8 µg/mL,,,,
"C[C@H](O)c1nccn1[C@@H](C#Cc1ccc(-c2ccc(O[C@H]3C[C@H](NS(C)(=O)=O)C3)cc2)cc1)CO (racemic) [Compound 120, N-((rac-trans)-3-((4′-((S)-4-hydroxy-3-(2-((S)-1-hydroxyethyl)-1H-imidazol-1-yl)but-1-yn-1-yl)-[1,1′-biphenyl]-4-yl)oxy)cyclobutyl)methane-sulfonamide]",4 µg/mL,2 µg/mL,1 µg/mL,2 µg/mL,,,,
"C[C@H](O)c1nccn1[C@@H](C#Cc1ccc(-c2ccc(O[C@H]3C[C@H](NCC#N)C3)cc2)cc1)CO (racemic) [Compound 121, 2-(((rac-trans)-3-((4′-((S)-4-hydroxy-3-(2-((S)-1-hydroxyethyl)-1H-imidazol-1-yl)but-1-yn-1-yl)-[1,1′-biphenyl]-4-yl)oxy)cyclobutyl)amino) acetonitrile]",4 µg/mL,1 µg/mL,0.5 µg/mL,1 µg/mL,,,,
"CNC(=O)[C@H]1C[C@H](Oc2ccc(-c3ccc(C#C[C@@H](CO)n4ccnc4[C@H](C)O)cc3)cc2)C1 (racemic) [Compound 122, (rac-trans)-3-((4′-((S)-4-hydroxy-3-(2-((S)-1-hydroxyethyl)-1H-imidazol-1-yl)but-1-yn-1-yl)-[1,1′-biphenyl]-4-yl)oxy)-N-methylcyclobutane-1-carboxamide]",2 µg/mL,2 µg/mL,0.5 µg/mL,1 µg/mL,,,,
"C[C@H](O)c1nccn1[C@@H](C#Cc1ccc(-c2ccc(O[C@@H]3COC[C@H]3OC(F)(F)F)cc2)cc1)CO (racemic) [Compound 124, (S)-2-(2-((S)-1-hydroxyethyl)-1H-imidazol-1-yl)-4-(4′-(((rac-trans)-4-(trifluoromethoxy)-tetrahydrofuran-3-yl)oxy)-[1,1′-biphenyl]-4-yl)but-3-yn-1-ol]",> 32 µg/mL,8 µg/mL,2 µg/mL,4 µg/mL,,,,
"CC(=O)N[C@H]1C[C@H](c2ccc(-c3ccc(C#C[C@@H](CO)n4ccnc4[C@H](C)O)cc3)cc2)C1 (racemic) [Compound 127, N-((rac-trans)-3-(4′-((S)-4-hydroxy-3-(2-((S)-1-hydroxyethyl)-1H-imidazol-1-yl)but-1-yn-1-yl)-[1,1′-biphenyl]-4-yl)cyclobutyl)acetamide]",1 µg/mL,1 µg/mL,0.25 µg/mL,1 µg/mL,,,,
"C[C@H](O)c1nccn1[C@@H](C#Cc1ccc(-c2ccc(O[C@H]3C[C@@H](C#N)C3)cc2)cc1)CO (racemic) [Compound 129, (rac-cis)-3-((4′-((S)-4-hydroxy-3-(2-((S)-1-hydroxyethyl)-1H-imidazol-1-yl)but-1-yn-1-yl)-[1,1′-biphenyl]-4-yl)oxy)cyclobutane-1-carbonitrile]",4 µg/mL,2 µg/mL,0.5 µg/mL,1 µg/mL,,,,
"C[C@H](O)c1nccn1[C@@H](C#Cc1ccc(-c2ccc(O[C@H]3C[C@H](C#N)C3)cc2)cc1)CO (racemic) [Compound 130, (rac-trans)-3-((4′-((S)-4-hydroxy-3-(2-((S)-1-hydroxyethyl)-1H-imidazol-1-yl)but-1-yn-1-yl)-[1,1′-biphenyl]-4-yl)oxy) cyclobutane-1-carbonitrile]",> 32 µg/mL,2 µg/mL,0.25 µg/mL,1 µg/mL,,,,
"C[C@H](O)c1nccn1[C@@H](C#Cc1ccc(-c2ccc(O[C@H]3C[C@@H](NCC#N)C3)cc2)cc1)CO (racemic) [Compound 131, 2-((rac-cis)-3-((4′-((S)-4-hydroxy-3-(2-((S)-1-hydroxyethyl)-1H-imidazol-1-yl)but-1-yn-1-yl)-[1,1′-biphenyl]-4-yl)oxy)cyclobutyl)amino) acetonitrile]",> 32 µg/mL,2 µg/mL,1 µg/mL,2 µg/mL,,,,
"C[C@H](O)c1nccn1[C@@H](C#Cc1ccc(-c2ccc(O[C@H]3C[C@@H](NS(C)(=O)=O)C3)cc2)cc1)CO (racemic) [Compound 132, N-((rac-cis)-3-((4′-((S)-4-hydroxy-3-(2-((S)-1-hydroxyethyl)-1H-imidazol-1-yl)but-1-yn-1-yl)-[1,1′-biphenyl]-4-yl)oxy)cyclobutyl)methane-sulfonamide]",4 µg/mL,4 µg/mL,2 µg/mL,> 32 µg/mL,,,,
"C[C@H](O)c1nccn1[C@@H](C#Cc1ccc(-c2ccc(O[C@H]3C[C@H](CNCC#N)C3)cc2)cc1)CO (racemic) [Compound 133, 2-((((rac-trans)-3-((4′-((S)-4-hydroxy-3-(2-((S)-1-hydroxyethyl)-1H-imidazol-1-yl)but-1-yn-1-yl)-[1,1′-biphenyl]-4-yl)oxy)cyclobutyl)methyl)amino) acetonitrile]",4 µg/mL,4 µg/mL,1 µg/mL,8 µg/mL,,,,
"CC(=O)N[C@H]1C[C@@H](c2ccc(-c3ccc(C#C[C@@H](CO)n4ccnc4[C@H](C)O)cc3)cc2)C1 (racemic) [Compound 135, N-((rac-cis)-3-(4′-((S)-4-hydroxy-3-(2-((S)-1-hydroxyethyl)-1H-imidazol-1-yl)but-1-yn-1-yl)-[1,1′-biphenyl]-4-yl)cyclobutyl)acetamide]",2 µg/mL,2 µg/mL,0.5 µg/mL,2 µg/mL,,,,
"CNC(=O)[C@H]1C[C@@H](Oc2ccc(-c3ccc(C#C[C@@H](CO)n4ccnc4[C@H](C)O)cc3)cc2)C1 (racemic) [Compound 137, (rac-cis)-3-((4′-((S)-4-hydroxy-3-(2-((S)-1-hydroxyethyl)-1H-imidazol-1-yl)but-1-yn-1-yl)-[1,1′-biphenyl]-4-yl)oxy)-N-methylcyclobutane-1-carboxamide]",1 µg/mL,0.5 µg/mL,0.5 µg/mL,2 µg/mL,,,,
"C[C@H](O)c1nccn1[C@@H](C#Cc1ccc(-c2ccc(O[C@@H]3C[C@H]3NCC#N)cc2)cc1)CO (racemic) [Compound 141, 2-(((rac-trans)-2-((4′-((S)-4-hydroxy-3-(2-((S)-1-hydroxyethyl)-1H-imidazol-1-yl)but-1-yn-1-yl)-[1,1′-biphenyl]-4-yl)oxy)cyclopropyl)amino) acetonitrile]",,,,,8 µg/mL,2 µg/mL,1 µg/mL,1 µg/mL
"C[C@H](O)c1nccn1[C@@H](C#Cc1ccc(-c2ccc(O[C@H]3C[C@@H](CNCC#N)C3)cc2)cc1)CO (racemic) [Compound 142, 2-((((rac-cis)-3-((4′-((S)-4-hydroxy-3-(2-((S)-1-hydroxyethyl)-1H-imidazol-1-yl)but-1-yn-1-yl)-[1,1′-biphenyl]-4-yl)oxy)cyclobutyl)methyl)amino)acetonitrile]",,,,,4 µg/mL,2 µg/mL,1 µg/mL,2 µg/mL
"C[C@H](O)c1nccn1[C@@H](C#Cc1ccc(-c2ccc(O[C@H]3COC[C@@H]3O)cc2F)cc1)CO (single isomer, unassigned) [Compound 2]",4 µg/mL,2 µg/mL,1 µg/mL,2 µg/mL,,,,
"C[C@H](O)c1nccn1[C@@H](C#Cc1ccc(-c2ccc(O[C@@H]3COC[C@H]3O)cc2F)cc1)CO (single isomer, unassigned) [Compound 3]",2 µg/mL,2 µg/mL,1 µg/mL,2 µg/mL,,,,
"C[C@H](O)c1nccn1[C@@H](C#Cc1ccc(-c2ccc(OC3COC[C@@H]3O)c(F)c2)cc1)CO (single isomer, unassigned) [Compound 7]",4 µg/mL,2 µg/mL,1 µg/mL,4 µg/mL,,,,
